Experimental data as given in patent US20170266266A1, “Functions of 55 Newfound Proteins and Their Medicinal Application in the Treatment and Prevention of Disease” (priority 2012, published 2017).
Values joined by “and” are separate entries in the source; they are usually repeats but may differ in a detail not shown here. Equal values may be shown once. Read-outs that look alike come from different tables or passages of the source.

Assays:
[1] = tested on: fatty streak lesions in rabbits on high fat diet; type: in vivo, rabbit; set-up: HDL-C, Wk 0 / HDL-C, Wk 18 or wk 21 / Fatty streak lesions area, Compare to wk 10 of control group / Fatty streak lesions area, Compare to wk 18 of control group: unit not given here; settings: for lipid con. at dissected aorta: triglyceride content; for increase of area of fatty streak lesion: control group 187%
Protocol: The rabbits were fasted for 12 hrs before the beginning of the experiments. Blood parameters were then tested as the normal level of plasma indicators. A total of 52 rabbits were purchased at different time, four of them were used as normal control and fed with normal diet the whole time during the experiments. […] Plasma concentrations of total cholesterol (TC), […] (TG), low density lipoprotein-cholesterol (LDL-C), very low density lipoprotein-cholesterol (VLDL-C), high density lipoprotein-cholesterol (HDL-C) were quantified by enzymatic assays. TC/HDL-C or ([…] ratios were then determined. Animals were sacrificed under deep anesthesia with sodium pentobarbital 25 mg/kg IV. The entire aorta from the aortic valve to the iliac bifurcation was removed from each rabbit and opened longitudinally. […] Atheromatous lesions were measured without staining Atheromatous lesions were manually traced in the photographs, and the percent area of the atheromatous lesions was calculated. Sample of aorta from animals were homogenated. And the content of lipid was determined.

[2] = tested on: atherosclerosis in ApoE knock out mouse on high fat diet
Source text: 10 ApoE ko mice were fed with regular chow diet and used as negative control group. 50 ApoE ko mice were fed with high fat diet (35% kcal fat, 1% cholesterol) for 8 weeks, and then the plasma samples were collected for lipid profile measurement before the treatment. 50 ApoE ko mice were assigned into 5 groups based on the fasting overnight plasma TC and HDL level.
5.2. Study Timeline: • 23 Dec. 2011: 60 ApoE mice arrived at chempartner and were housed in the animal facility in the building #3 for the acclimation. • 6 Jan. 2012: Measured the body weight for each mouse. 50 mice were fed with high fat diet and 10 mice were fed with normal chow diet. • 2 Mar. 2012: All mice were fasted over night and plasma samples (about 300 ul whole blood) were collected for lipid profile measurement before treatment with RAAS antibody. • 19 Mar. 2012 to 6 Apr. […] 2012: All mice were fasted over night and plasma sample for each mouse (about 300 ul whole blood) was collected for lipid profile measurement after 16 weeks treatment. Blood glucose was also measured for each mouse. • 9 Jul. 2012: The study was terminated after 16 weeks treatment. Measure BW, sacrificed each mouse, dissected the aorta, heart, liver and kidney and fixed them in 4% PFA.
Antibody products were administrated by intraperitoneal injection every two days (Monday, Wednesday, and Friday). and the positive compound was administered by p.o every day.
The body weight was weighed weekly during the period of treatment. The fasting overnight blood glucose was measured at the end of study by Roche glucometer.
About 300 ul of blood sample was collected from the orbital vein for each mouse and centrifuged at 7000 rpm for 5 min at 4E and the plasma lipid profile was measured by Roche Modular automatic biochemistry analyzer in DaAn Medical Laboratory
After RAAS antibody products treatment for 16 weeks, all mice were sacrificed. Measured body weight and collected blood sample for each mouse. Weighed liver weight and saved a tiny piece of liver into 4% paraformaldehyde (PFA) fixation solution for further analysis. At same time, take the photos with heart, lung, aortas and two kidneys.
5.8. Oil Red Staining Procedure: • 1. Sacrificed the mice and dissected the heart, aorta, and arteries under dissecting microscope. • 2. Briefly wash with PBS and fixed in 4% paraformaldehyde (PFA) overnight at 4[…]. • 3. Rinse with 60% isopropanol • 4. Stain with freshly prepared Oil Red O working solution 10 min. • 1). Oil red O stock stain: 0.5% powder in isopropanol • 2). Working solution: dilute with distilled water (3:2) and filter with membrane (0.22 um) • 5. Rinse with 60% isopropanol 10 second. • 6. Dispel the adherent bit fat outside of the aorta under the dissecting microscope. • 7. Cut the vascular wall gently and keep the integrated arteries using the micro scissors. • 8. Unfold the vascular inner wall with the cover slides and fix it by water sealing tablet.
Scanning the glasses slides with the Aperio ScanScope system and analyze with the image proplus software to measure the area of atherosclerotic plaque lesion. The results were expressed as the percentage of the total aortic surface area covered by lesions. The operation procedure of software was briefly described as follow: Converted the sys version photos into JPG version, then calibrated it and subsequently selected the red regions and then calculate the total area automatically by image proplus software.
The results were expressed as the Mean±SEM and statistically evaluated by student's t-test.

[3] = APOA1 group 1, Wk 0 (start of high fat diet)
[4] = APOA1 group 1, Wk 10 (before APOA1 administration)
[5] = APOA1 group 1, Wk 18 (end of APOA1 administration)
[6] = APOA1 group 2, Wk 0 (start of high fat diet)
[7] = APOA1 group 2, Wk 10 (before APOA1 administration)
[8] = APOA1 group 2, Wk 21 (end of APOA1 administration)

human Apolipoprotein AI [APOAI]
TC/HDL-C [1, 3]: 1.938 | plasma HDL-C [1, 3]: 0.748 | plasma LDL-C [1, 3]: 0.282 | plasma TCH [1, 3]: 1.152 | plasma TG [1, 3]: 0.967 | plasma VLDL-C [1, 3]: 0.870 | TC/HDL-C [1, 4]: 6.560 | plasma HDL-C [1, 4]: 8.261 | plasma LDL-C [1, 4]: 21.157 | plasma TCH [1, 4]: 36.153 | plasma TG [1, 4]: 5.191 | plasma VLDL-C [1, 4]: 14.996 | TC/HDL-C [1, 5]: 3.000 | plasma HDL-C [1, 5]: 1.46 | plasma LDL-C [1, 5]: 2.60 | plasma TCH [1, 5]: 3.69 | plasma TG [1, 5]: 1.17 | plasma VLDL-C [1, 5]: 1.09 | TC/HDL-C [1, 6]: 4.185 | plasma HDL-C [1, 6]: 0.432 | plasma LDL-C [1, 6]: 0.472 | plasma TCH [1, 6]: 1.430 | plasma TG [1, 6]: 0.93 | plasma VLDL-C [1, 6]: 0.958 | TC/HDL-C [1, 7]: 3.667 | plasma HDL-C [1, 7]: 10.168 | plasma LDL-C [1, 7]: 19.24 | plasma TCH [1, 7]: 34.683 | plasma TG [1, 7]: 4.507 | plasma VLDL-C [1, 7]: 15.443 | TC/HDL-C [1, 8]: 3.844 | plasma HDL-C [1, 8]: 1.17 | plasma LDL-C [1, 8]: 2.19 | plasma TCH [1, 8]: 3.322 | plasma TG [1, 8]: 1.94 | plasma VLDL-C [1, 8]: 1.14 | HDL-C, Wk 0 ([1]; APOAI Group 1): 0.748 | lipid con. at dissected aorta ([1]; APOAI Group 1 (n = 7)): 0.025 ± 0.0095 µmol/mg | Fatty streak lesions area ([1]; APOAI Group 1, Wk 18): 43.84% | Fatty streak lesions area, Compare to wk 10 of control group ([1]; APOAI Group 1, Wk 18): 19.03 | Fatty streak lesions area, Compare to wk 18 of control group ([1]; APOAI Group 1, Wk 18): −27.36 | Fatty streak lesions area, Decrease % (compare to wk 18 of control group) ([1]; APOAI Group 1, Wk 18): 38.43% | Fatty streak lesions area, Increase % (compare to wk 10 of control group) ([1]; APOAI Group 1, Wk 18): 77% | HDL-C, Concentration increased ([1]; APOAI Group 1, wk 0 to wk 18): 0.716 | HDL-C, Fold increased ([1]; APOAI Group 1, wk 0 to wk 18): 1.436 | HDL-C, Wk 0 ([1]; APOAI Group 2): 0.432 | lipid con. at dissected aorta ([1]; APOAI Group 2 (n = 4)): 0.0267 ± 0.0054 µmol/mg | Fatty streak lesions area ([1]; APOAI Group 2, Wk 21): 50.51% | Fatty streak lesions area, Compare to wk 10 of control group ([1]; APOAI Group 2, Wk 21): 25.71 | Fatty streak lesions area, Compare to wk 18 of control group ([1]; APOAI Group 2, Wk 21): −20.69 | Fatty streak lesions area, Decrease % (compare to wk 18 of control group) ([1]; APOAI Group 2, Wk 21): 29.05% | Fatty streak lesions area, Increase % (compare to wk 10 of control group) ([1]; APOAI Group 2, Wk 21): 104% | HDL-C, Concentration increased ([1]; APOAI Group 2, wk 0 to wk 21): 0.992 | HDL-C, Fold increased ([1]; APOAI Group 2, wk 0 to wk 21): 3.078 | HDL-C, Wk 18 or wk 21 ([1]; APOAI group 1 (wk 18)): 1.464 | decrease of area of fatty streak lesion vs control group ([1]; APOAI group 1 (wk 18)): 38% and 38.43% | TC/HDL-C vs control group ([1]; APOAI group 1, P<0.05): significant decrease | VLDL-C vs control group ([1]; APOAI group 1, P<0.05): significant decrease | increase of area of fatty streak lesion ([1]; APOAI group 1): 77% | rest of plasma lipid values vs control group ([1]; APOAI group 1 and 2): no significant change | HDL-C, Wk 18 or wk 21 ([1]; APOAI group 2 (wk 21)): 1.423 | decrease of area of fatty streak lesion vs control group ([1]; APOAI group 2 (wk 21)): 29% and 29.05% | increase of area of fatty streak lesion ([1]; APOAI group 2): 104% | triglyceride content at dissected aorta vs control group ([1]; P<0.05): significantly lower | liver index vs control group ([1]; rabbit, in vivo): no difference | plasma lipid concentrations (TC, TG, LDL-C, VLDL-C, HDL-C) ([1]; vs animal without APOAI treatment): decrease in all plasma lipid concentrations | gross examination of inner surface of aorta ([1]; vs control group): no bumps on the inner surface of aorta | liver gross specimen ([1]; vs wk 10): less fatty change in gross specimen | plasma HDL ([2]; 16 week treatment): mild trend to decrease the HDL level | plaque area and percentage of plaque area from root to right renal artery ([2]; 16 weeks): no significant difference | plaque area and percentage of plaque area in arterial arch area ([2]; 16 weeks): No significant difference | plaque area and percentage of plaque area in total inner vascular area ([2]; 16 weeks): No significant difference | lipid profile ([2]; 16 weeks treatment): did not affect the lipid profile | plasma TG level ([2]; 16 weeks treatment): no effect | plaque lesion area of aorta ([2]; 16 weeks treatment, atorvastatin 40 mg/kg): did not reduce the plaque lesion area of aorta | deaths in treatment groups ([2]; after 15 doses, i.p. daily on weekdays): several mice died in the treatment groups | body weight vs vehicle group ([2]; mouse, in vivo): no significant difference
